Results from PubChem BioAssay (NCI).
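Where inhibition never reached the appropriate level, the endpoint shown equals the highest concentration tested. Otherwise, values were interpolated linearly from a five-concentration, 48-hour dose response in 96-well plates. GI50: concentration for 50% inhibition of growth. TGI marks complete inhibition of growth.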 *1 amine or outer side, *2 acyl side, *3 side chain or, on linkers, in order; H or OH if unused. Where a SMILES comes first, the peptide text is derived from it. Bridges are numbered along the chain shown (N, C = ends). [ ]: non-standard residue; d: D form. The star is where a group is joined. ξ: configuration not given here. γ4hArg(2R,3R-(OH)2) = N=C(N)NCCC[C@H](N[*:1])[C@@H](O)[C@@H](O)C(=O)[*:2]; Gln(3S,4R-Me2) = C[C@H]([C@H](N)C(=O)O)[C@@H](C)C(N)=O; X43 = CC(C)C[C@H](C)[C@@H](O)[C@@H](C)C(=O)*; X44 = COC(c1ccc(O)cc1)C(N[*:1])C(=O)[*:2]; NMeQ = CN[C@@H](CCC(N)=O)C(=O)O; Thr(3ξ) = CC(O)[C@H](N)C(=O)O; NMeA = CN[C@@H](C)C(=O)O

How the values were obtained:
Assay in all cases: NCI anticancer screen, dose series, 48 h
[1] = tested on: NCI-H23 lung
[2] = tested on: BT-549 breast
[3] = tested on: HOP-92 NSCLC
[4] = tested on: UACC-257 melanoma
[5] = tested on: PC-3 prostate
[6] = tested on: HCT-116 colon
[7] = tested on: SNB-75 CNS
[8] = tested on: HL-60(TB) leukemia
[9] = tested on: MOLT-4 leukemia
[10] = tested on: SNB-19 CNS
[11] = tested on: SK-MEL-5 melanoma
[12] = tested on: SW-620 colon
[13] = tested on: TK-10 renal
[14] = tested on: MDA-MB-231 breast
[15] = tested on: U251 CNS
[16] = tested on: A549 NSCLC
[17] = tested on: NCI-H226 lung
[18] = tested on: COLO 205 colon
[19] = tested on: LOX IMVI melanoma
[20] = tested on: MCF7 breast
[21] = tested on: HT29 colon
[22] = tested on: HCC-2998 colon
[23] = tested on: OVCAR-4 ovarian
[24] = tested on: EKVX NSCLC
[25] = tested on: HOP-62 NSCLC
[26] = tested on: NCI-H522 lung
[27] = tested on: IGROV1 ovarian
[28] = tested on: RPMI-8226 leukemia
[29] = tested on: SN12C renal
[30] = tested on: ACHN renal
[31] = tested on: NCI/ADR-RES ovarian
[32] = tested on: SF-539 CNS
[33] = tested on: SK-MEL-2 melanoma
[34] = tested on: MDA-MB-435
[35] = tested on: KM12 colon
[36] = tested on: SK-MEL-28 melanoma
[37] = tested on: OVCAR-5 ovarian
[38] = tested on: CCRF-CEM leukemia
[39] = tested on: K-562 leukemia
[40] = tested on: SF-295 CNS
[41] = tested on: HCT-15 colon
[42] = tested on: 786-0 renal
[43] = tested on: DU-145 prostate
[44] = tested on: NCI-H460 lung
[45] = tested on: MALME-3M melanoma
[46] = tested on: CAKI-1 renal
[47] = tested on: SR leukemia
[48] = tested on: OVCAR-8 ovarian
[49] = tested on: M14 melanoma
[50] = tested on: UACC-62 melanoma
[51] = tested on: T-47D breast
[52] = tested on: RXF 393 renal
[53] = tested on: UO-31 renal
[54] = tested on: A498 renal
[55] = tested on: SF-268 CNS
[56] = tested on: SK-OV-3 ovarian
[57] = tested on: HS 578T breast
[58] = tested on: OVCAR-3 ovarian

CC1NC(=O)C2Cc3ccc(O)c(c3)Oc3ccc(cc3)C(O)C(C(=O)N2C)N(C)C(=O)C(C)NC(=O)C(Cc2ccc(O)cc2)N(C)C(=O)C(C)NC1=O (stereo not drawn)
TGI [1]: > 100 µM | TGI [2]: > 100 µM | TGI [3]: > 100 µM | TGI [4]: > 100 µM

O=c1cc(N2CCCC2)[nH]c(=O)n1Cc1ccccc1
TGI [5]: > 100 µM | TGI [6]: > 100 µM | TGI [7]: > 100 µM | TGI [8]: > 100 µM | TGI [9]: > 100 µM | TGI [1]: > 100 µM | TGI [10]: > 100 µM | TGI [11]: > 100 µM | TGI [12]: > 100 µM | TGI [13]: > 100 µM | TGI [14]: > 100 µM | TGI [2]: > 100 µM | TGI [3]: > 100 µM | TGI [15]: > 100 µM | TGI [16]: > 100 µM | TGI [17]: > 100 µM | TGI [18]: > 100 µM | TGI [19]: > 100 µM | TGI [20]: > 100 µM | TGI [21]: > 100 µM | TGI [4]: > 100 µM | TGI [22]: > 100 µM | TGI [23]: > 100 µM | TGI [24]: > 100 µM | TGI [25]: > 100 µM | TGI [26]: > 100 µM | TGI [27]: > 100 µM | TGI [28]: > 100 µM | TGI [29]: > 100 µM | TGI [30]: > 100 µM | TGI [31]: > 100 µM | TGI [32]: > 100 µM | TGI [33]: > 100 µM | TGI [34]: > 100 µM | TGI [35]: > 100 µM | TGI [36]: > 100 µM | TGI [37]: > 100 µM | TGI [38]: > 100 µM | TGI [39]: > 100 µM | TGI [40]: > 100 µM | TGI [41]: > 100 µM | TGI [42]: > 100 µM | TGI [43]: > 100 µM | TGI [44]: > 100 µM | TGI [45]: > 100 µM | TGI [46]: > 100 µM | TGI [47]: > 100 µM | TGI [48]: > 100 µM | TGI [49]: > 100 µM

Cc1ccc2c(=O)cc(-c3ccc(Cl)s3)[nH]c2n1
TGI [5]: > 100 µM | TGI [6]: > 55.3 µM | TGI [7]: > 27.9 µM | TGI [8]: 0.989 µM | TGI [9]: > 100 µM | TGI [50]: > 100 µM | TGI [1]: > 22.9 µM | TGI [51]: > 100 µM | TGI [10]: > 100 µM | TGI [11]: 17.7 µM | TGI [12]: > 100 µM | TGI [13]: > 100 µM | TGI [14]: > 100 µM | TGI [3]: > 100 µM | TGI [52]: > 25.7 µM | TGI [15]: > 100 µM | TGI [16]: > 29.3 µM | TGI [17]: 7.79 µM | TGI [18]: 28.8 µM | TGI [53]: 0.301 µM | TGI [19]: > 100 µM | TGI [20]: > 100 µM | TGI [54]: > 100 µM | TGI [21]: > 52.4 µM | TGI [4]: > 100 µM | TGI [22]: 25.9 µM | TGI [23]: > 100 µM | TGI [24]: > 100 µM | TGI [25]: > 100 µM | TGI [55]: > 81.6 µM | TGI [27]: > 100 µM | TGI [28]: 4.08 µM | TGI [29]: > 52.9 µM | TGI [30]: > 100 µM | TGI [31]: > 100 µM | TGI [32]: 3.93 µM | TGI [56]: 53.3 µM | TGI [33]: > 100 µM | TGI [34]: > 100 µM | TGI [35]: > 100 µM | TGI [36]: > 100 µM | TGI [37]: > 100 µM | TGI [38]: > 100 µM | TGI [39]: > 100 µM | TGI [57]: > 22.9 µM | TGI [40]: 4.85 µM | TGI [41]: > 100 µM | TGI [42]: > 80.4 µM | TGI [43]: > 100 µM | TGI [44]: > 100 µM | TGI [45]: > 100 µM | TGI [46]: > 100 µM | TGI [47]: > 76.2 µM | TGI [48]: > 53.8 µM | TGI [49]: > 100 µM | TGI [58]: > 100 µM

COC(c1ccc(O)cc1)C1NC(=O)[C@H](CCC(N)=O)N(C)C(=O)[C@H](CC(C)C)NC(=O)[C@@H](CCCN=C(N)N)NC(=O)[C@H](C(C)O)NC(=O)[C@@H](NC(=O)[C@@H](NC(=O)[C@H](O)[C@H](O)[C@H](CCCN=C(N)N)NC(=O)[C@H](C)NC(=O)[C@H](C)[C@H](O)[C@@H](C)CC(C)C)[C@@H](C)[C@@H](C)C(N)=O)[C@@H](C)OC(=O)[C@H](C)N(C)C1=O (stereo partly drawn) (X43-A[γ4hArg(2R,3R-(OH)2)][Gln(3S,4R-Me2)]T[Thr(3ξ)][dR]L[NMeQ][X44][NMeA]; ester 4-C)
TGI [1]: 0.201 µM | TGI [2]: 0.737 µM | TGI [3]: 0.614 µM | TGI [17]: 0.912 µM | TGI [4]: 0.308 µM

C=C(C)[C@@H]1CC[C@]2(C(=O)N[C@H](CO)Cc3ccccc3)CC[C@]3(C)[C@H](CC[C@@H]4[C@@]5(C)CCCNC(C)(C)[C@@H]5CC[C@]43C)[C@@H]12
GI50 [7]: 1.43 µM | TGI [7]: 2.87 µM | GI50 [50]: 1.76 µM | TGI [50]: 3.39 µM | GI50 [11]: 1.67 µM | TGI [11]: 3.07 µM | GI50 [13]: 1.61 µM | TGI [13]: 3.08 µM | GI50 [3]: 1.42 µM | TGI [3]: 3.02 µM | GI50 [54]: 1.49 µM | TGI [54]: 2.94 µM | GI50 [21]: 0.24 µM | TGI [21]: 0.539 µM | GI50 [4]: 1.78 µM | TGI [4]: 3.34 µM | GI50 [26]: 1.75 µM | TGI [26]: 3.35 µM | GI50 [33]: 1.72 µM | TGI [33]: 3.18 µM | GI50 [35]: 1.47 µM | TGI [35]: 2.91 µM | GI50 [46]: 1.49 µM | TGI [46]: 2.89 µM
